Measurements published in PubChem BioAssay AID1259411 (Chemical Carcinogenesis Research Information System (CCRIS), 2018).
Activity calls are given as the source filed them. The rule behind the calls is not given here.

Test system: rodent carcinogenicity bioassays, tumor incidence
Assay: CCRIS carcinogenicity studies
Procedure, shortened: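 NCI-built, expert-reviewed records of carcinogenicity and related test outcomes (mutagenicity, tumor promotion/inhibition) compiled from published and report sources, historical span 1985-2011, not updated.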

COCC(=O)N(c1c(C)cccc1C)C(C)C(=O)OC (configuration not stated)
carcinogen call (Species: Mouse, Strain/Sex: ICI Alderly Park (Swiss strain origin)/Female (60/Group), Route: Oral, Dose: 0, 50, 250, 1250 ppm of 93.8-95.2% metalaxyl in diet for 104 wk, study duration 104 wk, Dose: 0, 50, 250, 1250 ppm of 93.8-95.2% metalaxyl in diet for 104 wk, study duration 104 wk): inactive; negative | carcinogen call (Species: Mouse, Strain/Sex: ICI Alderly Park (Swiss strain origin)/Male (60/Group), Route: Oral, Dose: 0, 50, 250, 1250 ppm of 93.8-95.2% metalaxyl in diet for 104 wk, study duration 104 wk, Dose: 0, 50, 250, 1250 ppm of 93.8-95.2% metalaxyl in diet for 104 wk, study duration 104 wk): inactive; negative | carcinogen call (Species: Rat, Strain/Sex: CD (Sprague-Dawley derived)/Female (70/Group), Route: Oral, Dose: 0, 50, 250, 1250 ppm of 93% metalaxyl in diet for 105 wk, study duration 105 wk, Dose: 0, 50, 250, 1250 ppm of 93% metalaxyl in diet for 105 wk, study duration 105 wk, Tumor Site: Type of Lesion: Thyroid: follicular cell adenoma): active; positive | carcinogen call (Species: Rat, Strain/Sex: CD (Sprague-Dawley derived)/Male (70/Group), Route: Oral, Dose: 0, 50, 250, 1250 ppm of 93% metalaxyl in diet for 105 wk, study duration 105 wk, Dose: 0, 50, 250, 1250 ppm of 93% metalaxyl in diet for 105 wk, study duration 105 wk): inactive; negative

Oc1ccc(Cl)cc1Cc1ccccc1
carcinogen call (Species: MOUSE, Strain/Sex: B6C3F1/FEMALE, Route: GAVAGE, Dose: 0, 120, 240, 480 MG/KG BW IN CORN OIL 5 D/WK FOR 103 WK (STUDY DURATION: 2 YR), Dose: 0, 120, 240, 480 MG/KG BW IN CORN OIL 5 D/WK FOR 103 WK (STUDY DURATION: 2 YR)): inactive; negative | carcinogen call (Species: MOUSE, Strain/Sex: B6C3F1/MALE, Route: GAVAGE, Dose: 0, 120, 240, 480 MG/KG BW IN CORN OIL 5 D/WK FOR 103 WK (STUDY DURATION: 2 YR), Dose: 0, 120, 240, 480 MG/KG BW IN CORN OIL 5 D/WK FOR 103 WK (STUDY DURATION: 2 YR), Tumor Site: Type of Lesion: KIDNEY (RENAL TUBULE): ADENOMA, ADENOMA OR CARCINOMA): active; positive | carcinogen call (Species: MOUSE, Strain/Sex: CD-1/FEMALE, Route: DERMAL, Dose: 10 MG IN ACETONE ONCE FOLLOWED BY 0.1, 1, 3 MG 3/WK FOR 51 WK (STUDY DURATION: 52 WK), Dose: 10 MG IN ACETONE ONCE FOLLOWED BY 0.1, 1, 3 MG 3/WK FOR 51 WK (STUDY DURATION: 52 WK)): inactive; negative | carcinogen call (Species: MOUSE, Strain/Sex: CD-1/MALE, Route: DERMAL, Dose: 10 MG IN ACETONE ONCE FOLLOWED BY 0.1, 1, 3 MG 3/WK FOR 51 WK (STUDY DURATION: 52 WK), Dose: 10 MG IN ACETONE ONCE FOLLOWED BY 0.1, 1, 3 MG 3/WK FOR 51 WK (STUDY DURATION: 52 WK)): inactive; negative | carcinogen call (Species: RAT, Strain/Sex: F344/FEMALE, Route: GAVAGE, Dose: 0, 30, 60, 120 MG/KG BW IN CORN OIL 5 D/WK FOR 103 WK (STUDY DURATION: 105 WK), Dose: 0, 30, 60, 120 MG/KG BW IN CORN OIL 5 D/WK FOR 103 WK (STUDY DURATION: 105 WK), Tumor Site: Type of Lesion: KIDNEY (TRANSITIONAL CELL): CARCINOMA): equivocal | carcinogen call (Species: RAT, Strain/Sex: F344/MALE, Route: GAVAGE, Dose: 0, 30, 60, 120 MG/KG BW IN CORN OIL 5 D/WK FOR 103 WK (STUDY DURATION: 2 YR), Dose: 0, 30, 60, 120 MG/KG BW IN CORN OIL 5 D/WK FOR 103 WK (STUDY DURATION: 2 YR)): inactive; negative

O=[N+]([O-])c1cc([N+](=O)[O-])c2ccc(S(=O)(=O)O)cc2c1O
carcinogen call (Species: MOUSE, Strain/Sex: SWISS-WEBSTER/FEMALE, Route: DERMAL, Dose: 0, 1% IN 0.1 ML DISTILLED WATER 1/WK FOR 18 MO (STUDY DURATION: 18 MO)): inactive; negative | carcinogen call (Species: MOUSE, Strain/Sex: SWISS-WEBSTER/MALE, Route: DERMAL, Dose: 0, 1% IN 0.1 ML DISTILLED WATER 1/WK FOR 18 MO (STUDY DURATION: 18 MO)): inactive; negative
